Measured values as given in patent US20080181866A1, “Amido Anti-viral Compounds” (Genelabs Technologies, Inc., priority 2006, published 2008).

Test system: HCV replication
Experiment: HCV replicon assay (luciferase) in ET (Huh-lucubineo-ET) cell line
Assay type: cell-based
Conditions: tested at 5 μM, ET replicon cells, luciferase activity measured 48-72 hours later, relative to no compound control; for inhibition at 5 µM: Hepatitis C virus
Protocol: A cell line, ET (Huh-lucubineo-ET) was used for screening of compounds of the present invention for inhibiting HCV replication. The ET cell line was stably transfected with RNA transcripts harboring a I389luc-ubi-neo/NS3-3′/ET; replicon with firefly luciferase-ubiquitin-neomycin phosphotransferase fusion protein and EMCV-IRES driven NS3-5B polyprotein containing the cell culture adaptive mutations (E1202G; T12801; K1846T) (Krieger at al, 2001 and unpublished). The ET cells were grown in DMEM (Dulbeco's Modified Eagle's Medium), supplemented with 10% fetal calf serum, 2 mM Glutamine, Penicillin (100 IU/mL)/Streptomycin (100 μg/mL), 1× nonessential amino acids, and 250 μg/mL G418 (“Geneticin”). They were all available through Life Technologies (Bethesda, Md.). The cells were plated at 0.5-1.0×10^4 cells/well in the 96 well plates and incubated for 24 hrs before adding testing compounds. Then the compounds were added to the cells to achieve a final concentration of 0.1 nM to 50 μM and a final DMSO concentration of 0.5%. Luciferase activity were measured 48-72 hours later by adding a lysis buffer and the substrate (Catalog number Glo-lysis buffer E2661 and Bright-Glo luciferase system E2620 Promega, Madison, Wis.). Cells should not be too confluent during the assay. Percent inhibition of replication was plotted relative to no compound control. Under the same condition, cytotoxicity of the compounds was determined using cell proliferation reagent, WST-1 (Roche, Germany). The compounds showing antiviral activities, but no significant cytotoxicities were chosen to determine EC50 and TC50. For these determinations, a 10 point 2-fold serial dilution for each compound was used, which spans a concentration range of 1000 fold. EC50 and similarly TC50 values were calculated by fitting % inhibition at each concentration to the following equation:
% inhibition=100%/[(IC50/[I])^b+1]
where b is Hill's coefficient.
In some preferred embodiments compounds of Formula I will have a % inhibition of at least 20% when tested at 5 μM. In other embodiments the compounds of Formula I will have a % inhibition of at least 50% when tested at 5 μM.

COC(=O)c1ccc(C2SC[C@@H](C(=O)Nc3nc(-c4ccc(C(=O)NC5CC5)cc4)cs3)N2C(=O)OCc2ccccc2)cc1 (mixture of isomers) [Compound 7051, (R)-4-[4-(4-Cyclopropylcarbamoyl-phenyl)-thiazol-2-ylcarbamoyl]-2-(4-methoxycarbonyl-phenyl)-thiazolidine-3-carboxylic acid benzyl ester]
inhibition at 5 µM: 99.4%

Cn1ccnc1C1SC[C@@H](C(=O)Nc2nc(-c3ccc(C(=O)NC4CC4)cc3)cs2)N1C(=O)OCc1ccccc1 (mixture of isomers) [Compound 7053, (R)-4-[4-(4-Cyclopropylcarbamoyl-phenyl)-thiazol-2-ylcarbamoyl]-2-(1-methyl-1H-imidazol-2-yl)-thiazolidine-3-carboxylic acid benzyl ester]
inhibition at 5 µM: 99.6%

O=C(NC1CC1)c1ccc(-c2csc(NC(=O)[C@@H]3CSC(c4ncco4)N3C(=O)OCc3ccccc3)n2)cc1 (mixture of isomers) [Compound 7056, (R)-4-[4-(4-Cyclopropylcarbamoyl-phenyl)-thiazol-2-ylcarbamoyl]-2-oxazol-2-yl-thiazolidine-3-carboxylic acid benzyl ester]
inhibition at 5 µM: 99.9%

COC(=O)c1cccc(C2SC[C@@H](C(=O)Nc3nc(-c4ccc(C(=O)NC5CC5)cc4)cs3)N2C(=O)OCc2ccccc2)c1 (mixture of isomers) [Compound 7057, (R)-4-[4-(4-Cyclopropylcarbamoyl-phenyl)-thiazol-2-ylcarbamoyl]-2-(3-methoxycarbonyl-phenyl)-thiazolidine-3-carboxylic acid benzyl ester]
inhibition at 5 µM: 100%

O=C(O)CCC1SC[C@@H](C(=O)Nc2nc(-c3ccc(C(=O)NC4CC4)cc3)cs2)N1C(=O)OCc1ccccc1 (mixture of isomers) [Compound 7065, 2-(2-Carboxy-ethyl)-4-[4-(4-cyclopropylcarbamoyl-phenyl)-thiazol-2-ylcarbamoyl]-thiazolidine-3-carboxylic acid benzyl ester]
inhibition at 5 µM: 92%

O=C(NC1CC1)c1ccc(-c2csc(NC(=O)[C@@H]3CSC(c4cccc(CN5CCOCC5)c4)N3C(=O)OCc3ccccc3)n2)cc1 (mixture of isomers) [Compound 7080, 4-[4-(4-Cyclopropylcarbamoyl-phenyl)-thiazol-2-ylcarbamoyl]-2-(3-morpholin-4-ylmethyl-phenyl)-thiazolidine-3-carboxylic acid benzyl ester]
inhibition at 5 µM: 100%

CC(C)(C)OC(=O)N1CCCC(C2SC[C@@H](C(=O)Nc3nc(-c4ccc(C(=O)NC5CC5)cc4)cs3)N2C(=O)OCc2ccccc2)C1 (mixture of isomers) [Compound 7098, 3-{3-Benzyloxycarbonyl-4-[4-(4-cyclopropylcarbamoyl-phenyl)-thiazol-2-ylcarbamoyl]-thiazolidin-2-yl}-piperidine-1-carboxylic acid tert-butyl ester]
inhibition at 5 µM: 99.9%

CC(=O)c1ccc(C2SC[C@@H](C(=O)Nc3nc(-c4ccc(C(=O)NC5CC5)cc4)cs3)N2C(=O)OCc2ccccc2)cc1 (mixture of isomers) [Compound 7109, 2-(4-Acetyl-phenyl)-4-[4-(4-cyclopropylcarbamoyl-phenyl)-thiazol-2-ylcarbamoyl]-thiazolidine-3-carboxylic acid benzyl ester]
inhibition at 5 µM: 100%

CN(C)C(=O)CCCCC1SC[C@@H](C(=O)Nc2nc(-c3ccc(C(=O)NC4CC4)cc3)cs2)N1C(=O)OCc1ccccc1 (mixture of isomers) [Compound 7125, 4-[4-(4-Cyclopropylcarbamoyl-phenyl)-thiazol-2-ylcarbamoyl]-2-(4-dimethylcarbamoyl-butyl)-thiazolidine-3-carboxylic acid benzyl ester]
inhibition at 5 µM: 100%

CC(=O)N1CCCC(C2SC[C@@H](C(=O)Nc3nc(-c4ccc(C(=O)NC5CC5)cc4)cs3)N2C(=O)OCc2ccccc2)C1 (mixture of isomers) [Compound 7133, 2-(1-Acetyl-piperidin-3-yl)-4-[4-(4-cyclopropylcarbamoyl-phenyl)-thiazol-2-ylcarbamoyl]-thiazolidine-3-carboxylic acid benzyl ester]
inhibition at 5 µM: 100%

CC(C)(C)OC(=O)N1C(c2cccnc2)SC[C@H]1C(=O)Nc1nc(-c2ccc(C(=O)NC3CC3)cc2)cs1 (single isomer, unassigned) [Compound 7032, 4-[4-(4-Cyclopropylcarbamoyl-phenyl)-thiazol-2-ylcarbamoyl]-2-pyridin-3-yl-thiazolidine-3-carboxylic acid tert-butyl ester]
inhibition at 5 µM: 99.2%

Cn1ccnc1C1SC[C@@H](C(=O)Nc2nc(-c3ccc(C(=O)NC4CC4)cc3)cs2)N1C(=O)OCc1ccccc1 (single isomer, unassigned) [Compound 7054, 4-[4-(4-Cyclopropylcarbamoyl-phenyl)-thiazol-2-ylcarbamoyl]-2-(1-methyl-1H-imidazol-2-yl)-thiazolidine-3-carboxylic acid benzyl ester]
inhibition at 5 µM: 94.1%

CC(C)(C)OC(=O)N1C(c2cccnc2)SC[C@H]1C(=O)Nc1nc(-c2ccc(C(=O)NC3CC3)cc2)cs1 (single isomer, unassigned) [Compound 7055, 4-[4-(4-Cyclopropylcarbamoyl-phenyl)-thiazol-2-ylcarbamoyl]-2-pyridin-3-yl-thiazolidine-3-carboxylic acid tert-butyl ester]
% inhibition at 5 μM (5 µM): 99.1%

O=C(NC1CC1)c1ccc(NC(=O)[C@@H]2CSC(c3ccncc3)N2C(=O)OCc2ccccc2)cc1 (stereo in doubt) [Compound 7066, 4-(4-Cyclopropylcarbamoyl-phenylcarbamoyl)-2-pyridin-4-yl-thiazolidine-3-carboxylic acid benzyl ester]
inhibition at 5 µM: 6.9%

O=C(Nc1ccc(CNS(=O)(=O)c2ccc(-c3ccccc3)cc2)cc1)[C@@H]1CSC(c2ccncc2)N1C(=O)OCc1ccccc1 (stereo in doubt) [Compound 7073, 4-{4-[(Biphenyl-4-sulfonylamino)-methyl]-phenylcarbamoyl}-2-pyridin-4-yl-thiazolidine-3-carboxylic acid benzyl ester]
inhibition at 5 µM: 65.3%

O=C(NCc1ccc(NC(=O)[C@@H]2CSC(c3ccncc3)N2C(=O)OCc2ccccc2)cc1)c1ccccc1 (stereo in doubt) [Compound 7077, 4-[4-(Benzoylamino-methyl)-phenylcarbamoyl]-2-pyridin-4-yl-thiazolidine-3-carboxylic acid benzyl ester]
inhibition at 5 µM: 2.1%

N#Cc1cccc(C2OC[C@@H](C(=O)Nc3nc(-c4ccc(C(=O)NC5CC5)cc4)cs3)N2C(=O)OCc2ccccc2)c1 (stereo in doubt) [Compound 7081, 2-(3-Cyano-phenyl)-4-[4-(4-cyclopropylcarbamoyl-phenyl)-thiazol-2-ylcarbamoyl]-oxazolidine-3-carboxylic acid benzyl ester]
inhibition at 5 µM: 100%

O=C(O)CCCCC1SC[C@@H](C(=O)Nc2nc(-c3ccc(C(=O)NC4CC4)cc3)cs2)N1C(=O)OCc1ccccc1 (stereo in doubt) [Compound 7088, 2-(4-Carboxy-butyl)-4-[4-(4-cyclopropylcarbamoyl-phenyl)-thiazol-2-ylcarbamoyl]-thiazolidine-3-carboxylic acid benzyl ester]
inhibition at 5 µM: 99.8%

CNC(=O)CCC1SC[C@@H](C(=O)Nc2nc(-c3ccc(C(=O)NC4CC4)cc3)cs2)N1C(=O)OCc1ccccc1 (stereo in doubt) [Compound 7091, 4-[4-(4-Cyclopropylcarbamoyl-phenyl)-thiazol-2-ylcarbamoyl]-2-(2-methylcarbamoyl-ethyl)-thiazolidine-3-carboxylic acid benzyl ester]
inhibition at 5 µM: 100%

O=C(NC1CC1)c1ccc(-c2csc(NC(=O)[C@@H]3COC(CC4CCOCC4)N3C(=O)OCc3ccccc3)n2)cc1 (stereo in doubt) [Compound 7095, 4-[4-(4-Cyclopropylcarbamoyl-phenyl)-thiazol-2-ylcarbamoyl]-2-(tetrahydropyran-4-ylmethyl)-oxazolidine-3-carboxylic acid benzyl ester]
inhibition at 5 µM: 99.9%

CC1(c2ccncc2)SC[C@@H](C(=O)Nc2nc(-c3ccc(C(=O)NC4CC4)cc3)cs2)N1C(=O)OCc1ccccc1 (stereo in doubt) [Compound 7096, 4-[4-(4-Cyclopropylcarbamoyl-phenyl)-thiazol-2-ylcarbamoyl]-2-methyl-2-pyridin-4-yl-thiazolidine-3-carboxylic acid benzyl ester]
inhibition at 5 µM: 99.9%

O=C(NC1CC1)c1ccc(-c2csc(NC(=O)[C@@H]3CSC(CCCCC(=O)N4CCCCC4)N3C(=O)OCc3ccccc3)n2)cc1 (stereo in doubt) [Compound 7102, 4-[4-(4-Cyclopropylcarbamoyl-phenyl)-thiazol-2-ylcarbamoyl]-2-(5-oxo-5-piperidin-1-yl-pentyl)-thiazolidine-3-carboxylic acid benzyl ester]
inhibition at 5 µM: 100%
